Assay results from US20030065039A1, “Biologically active 1,3-bis-aromatic-prop-2-en-1-ones, 1,3-bis-aromatic-propan-1-ones, and 1,3-bis-aromatic-prop-2-yn-1-ones” (Statens Serum Institute, priority 1997, published 2003).

What was measured:
Format in all cases: cell-based
TNF-α [1] = assay: Intracellular TNF-α in human mononuclear cells (flow cytometry); conditions: for % TNFα- producing cells: DMSO 10.1; for inhibition at 6.25 µg/mL / inhibition at 12.5 µg/mL / inhibition at 25 µg/mL / inhibition at 3.125 µg/mL: Homo sapiens
Protocol: [table] Incubation condition: Cells and mitogen added at the same time and the compound solution added immediately after in polypropylene tubes and incubated at 37° C. in CO2 incubator overnight. The following day the cells and the supernatant were harvested for TNF-α determination. Incubation condition: Cells and mitogen added at the same time and the compound solution added immediately after in polypropylene tubes and incubated at 37° C. in CO2 incubator overnight. The following day the cells and the supernatant were harvested for TNF-α determination.

TNF-α [2] = assay: Extracellular TNF-α of human mononuclear cells (supernatant); conditions: for inhibition at 3.125 µg/mL: compound 3.125 μg/ml; for inhibition at 6.25 µg/mL: compound 6.25 μg/ml; for inhibition at 12.5 µg/mL: compound 12.5 μg/ml
Protocol: Incubation condition: Cells and mitogen added at the same time and the compound solution added immediately after in polypropylene tubes and incubated at 37° C. in CO2 incubator overnight. The following day the cells and the supernatant were harvested for TNF-α determination. Incubation condition: Cells and mitogen added at the same time and the compound solution added immediately after in polypropylene tubes and incubated at 37° C. in CO2 incubator overnight. The following day the cells and the supernatant were harvested for TNF-α determination.

[3] = test system: cytomegalovirus AD-169 strain; assay: Activity against cytomegalovirus in HEL cells (plaque formation); conditions: virus plaque formation reduced by 50%, 100 PFU, values given as fractions
Protocol: (§1) IC50 values are determined by the virus plaque formation and/or the virus cytopathic assay using standard methods well-known in the art.

[4] = test system: cytomegalovirus Davis strain; assay: as above; conditions: virus plaque formation reduced by 50%, 100 PFU, values given as fractions
Protocol: as §1

TNF-α [5] = assay: TNF-α in lysate of stimulated human mononuclear cells (ELISA); conditions: cells preincubated with compound, stimulated with SPAG or LPS
Protocol: (§2) Therefore, experiments were performed to examine the effect of Licochalcone A and SBC-35ma on secretion of TNF-α from the stimulated cells. These experiments included detection of the cytokines in the cell lysate by ELISA and staining of the intracellular cytokines by using monoclonal antibodies against these cytokines and cytokine receptors.

IL-1ra = assay: Intracellular cytokine staining in stimulated human mononuclear cells; conditions: 25 μg/ml compound
Protocol: as §2
(§3) Table 3. Effect of Licochalcone A and SBC-35ma on the presence of intracellur cytokines in the human peripheral blood mononuclear cells stimulated either with a malarial exoantigen SPAG (diluted 1:12.5) or bacterial LPS (diluted 1:1000). The cells were preincubated with 25 μg/ml of each of the compounds for 2 hours and then incubated in the presence of antigens at 37° C. overnight. The cells were permeabilized and then fixed in paraformaldehyde Cytokine specific monoclonal antibodies were used for the detection of positive cells for each cytokine. Data are presented as percentages of positive cells for each cytokine.

IL-1α = assay: as above; conditions: 25 μg/ml compound, 2 hours preincubation
Protocol: as §2, §3

IL-1β = assay: as above; conditions: 25 μg/ml compound
Protocol: as §2, §3

IL-2 = assay: as above; conditions: 25 μg/ml compound
Protocol: as §2, §3

IL-4 = assay: as above; conditions: 25 μg/ml compound
Protocol: as §2, §3

IL-6 = assay: as above; conditions: 25 μg/ml compound
Protocol: as §2, §3

TNF-α [6] = assay: as above; conditions: 25 μg/ml compound
Protocol: as §2, §3

[7] = 1b Experiment 1, LPS 0.5 μg/ml, compound 12.5 μg/ml, DMSO 13.8
[8] = 1b Experiment 1, LPS 0.5 μg/ml, compound 25.0 μg/ml, DMSO 13.8
[9] = 1b Experiment 2, LPS 1 μg/ml, compound 3.125 μg/ml, DMSO 4.0
[10] = 1b Experiment 2, LPS 1 μg/ml, compound 6.25 μg/ml, DMSO 4.0
[11] = 1b Experiment 2, LPS 1 μg/ml, compound 12.5 μg/ml, DMSO 4.0
[12] = 1b Experiment 3, LPS 1 μg/ml, compound 3.125 μg/ml
[13] = 1b Experiment 3, LPS 1 μg/ml, compound 6.25 μg/ml
[14] = 1b Experiment 3, LPS 1 μg/ml, compound 12.5 μg/ml
[15] = 1b Experiment 4, LPS 1 μg/ml, compound 3.125 μg/ml, DMSO 14.6
[16] = 1b Experiment 4, LPS 1 μg/ml, compound 6.25 μg/ml, DMSO 14.6
[17] = 1b Experiment 4, LPS 1 μg/ml, compound 12.5 μg/ml, DMSO 14.6
[18] = 1b Experiment 1, LPS 0.5 μg/ml, compound 12.5 μg/ml, read-out: % inhibition
[19] = 1b Experiment 1, LPS 0.5 μg/ml, compound 25.0 μg/ml
[20] = 1b Experiment 2, LPS 1 μg/ml, compound 3.125 μg/ml
[21] = 1b Experiment 2, LPS 1 μg/ml, compound 6.25 μg/ml, read-out: Intracellular % inhibition
[22] = 1b Experiment 2, LPS 1 μg/ml, compound 12.5 μg/ml, read-out: Intracellular % inhibition
[23] = 1b Experiment 3, LPS 1 μg/ml, compound 6.25 μg/ml, read-out: Intracellular % inhibition
[24] = 1b Experiment 3, LPS 1 μg/ml, compound 12.5 μg/ml, read-out: Intracellular % inhibition
[25] = 1b Experiment 4, LPS 1 μg/ml, compound 3.125 μg/ml
[26] = 1b Experiment 4, LPS 1 μg/ml, compound 6.25 μg/ml, read-out: Intracellular % inhibition
[27] = 1b Experiment 4, LPS 1 μg/ml, compound 12.5 μg/ml, read-out: Intracellular % inhibition

COc1cc(/C=C/C(=O)c2ccccc2F)cc(OC)c1 [PH135, 2′-fluoro-3,5-dimethoxychalcone]
% TNF-α producing cells (TNF-α [1]; 1b Experiment 1, LPS 0.5 μg/ml, compound 6.25 μg/ml, DMSO 13.8): 4.1% | % TNF-α producing cells (TNF-α [1]; [7]): 2.3% | % TNF-α producing cells (TNF-α [1]; [8]): 2.2% | % TNF-α producing cells (TNF-α [1]; [9]): 4.3% | % TNF-α producing cells (TNF-α [1]; [10]): 1.7% | % TNF-α producing cells (TNF-α [1]; [11]): 2.0% | % TNFα- producing cells (TNF-α [1]; [12]): 1.7% | % TNFα- producing cells (TNF-α [1]; [13]): 1.2% | % TNFα- producing cells (TNF-α [1]; [14]): 1.0% | % TNF-α producing cells (TNF-α [1]; [15]): 3.5% | % TNF-α producing cells (TNF-α [1]; [16]): 2.1% | % TNF-α producing cells (TNF-α [1]; [17]): 1.8% | inhibition at 6.25 µg/mL (TNF-α [1]; 1b Experiment 1, LPS 0.5 μg/ml, compound 6.25 μg/ml, read-out: % inhibition): 70% | inhibition at 12.5 µg/mL (TNF-α [1]; [18]): 83% | inhibition at 25 µg/mL (TNF-α [1]; [19]): 84% | inhibition at 3.125 µg/mL (TNF-α [1]; [20]): 0% | inhibition at 6.25 µg/mL (TNF-α [1]; [21]): 58% | inhibition at 12.5 µg/mL (TNF-α [1]; [22]): 50% | inhibition at 3.125 µg/mL (TNF-α [1]; [12]): 83% | inhibition at 6.25 µg/mL (TNF-α [1]; [23]): 88% | inhibition at 12.5 µg/mL (TNF-α [1]; [24]): 90% | inhibition at 3.125 µg/mL (TNF-α [1]; [25]): 76% | inhibition at 6.25 µg/mL (TNF-α [1]; [26]): 86% | inhibition at 12.5 µg/mL (TNF-α [1]; [27]): 88% | inhibition at 3.125 µg/mL (TNF-α [2]; 1b Experiment 2, LPS 1 μg/ml): 96% | inhibition at 6.25 µg/mL (TNF-α [2]; 1b Experiment 2, LPS 1 μg/ml): 94% | inhibition at 12.5 µg/mL (TNF-α [2]; 1b Experiment 2, LPS 1 μg/ml): 94% | inhibition at 3.125 µg/mL (TNF-α [2]; 1b Experiment 3, LPS 1 μg/ml): 93% | inhibition at 6.25 µg/mL (TNF-α [2]; 1b Experiment 3, LPS 1 μg/ml): 92% | inhibition at 12.5 µg/mL (TNF-α [2]; 1b Experiment 3, LPS 1 μg/ml): 94% | inhibition at 3.125 µg/mL (TNF-α [2]; 1b Experiment 4, LPS 1 μg/ml): 99% | inhibition at 6.25 µg/mL (TNF-α [2]; 1b Experiment 4, LPS 1 μg/ml): 99% | inhibition at 12.5 µg/mL (TNF-α [2]; 1b Experiment 4, LPS 1 μg/ml): 98%

C=CCOc1ccc(C(=O)/C=C/c2cc(OC)cc(OC)c2)cc1 [SBC-35ma, 3,5-dimethoxy-4′-allyloxychalcone]
Antiviral activity IC50, AD-169 strain, Assay 1 [3]: <1/60 | Antiviral activity IC50, Davis strain, Assay 1 [4]: <1/60 | intracellular TNF-α in the cell lysate (ELISA) (TNF-α [5]): no intracellular TNF-α present | percentages of positive cells for IL-1ra (IL-1ra; LPS 1:1000, LPS alone 5.1): 0.78% | percentages of positive cells for IL-1ra (IL-1ra; SPAG 1:12.5, SPAG alone 6.6): 0.14% | percentages of positive cells for IL-1α (IL-1α; LPS 1:1000, LPS alone 13): 0% | percentages of positive cells for IL-1α (IL-1α; SPAG 1:12.5, SPAG alone 11): 0% | percentages of positive cells for IL-1β (IL-1β; LPS 1:1000, LPS alone 9.1): 0% | percentages of positive cells for IL-1β (IL-1β; SPAG 1:12.5, SPAG alone 13): 0% | percentages of positive cells for IL-2 (IL-2; LPS 1:1000, LPS alone 2.0): 0% | percentages of positive cells for IL-2 (IL-2; SPAG 1:12.5, SPAG alone 3.1): 0% | percentages of positive cells for IL-4 (IL-4; LPS 1:1000, LPS alone 0): 0% | percentages of positive cells for IL-4 (IL-4; SPAG 1:12.5, SPAG alone 0): 0% | percentages of positive cells for IL-6 (IL-6; LPS 1:1000, LPS alone 4.3): 0% | percentages of positive cells for IL-6 (IL-6; SPAG 1:12.5, SPAG alone 5.6): 0% | percentages of positive cells for TNF-α (TNF-α [6]; LPS 1:1000, LPS alone 0.30): 0% | percentages of positive cells for TNF-α (TNF-α [6]; SPAG 1:12.5, SPAG alone 0.96): 0%

COc1cc(/C=C/C(=O)c2ccc(C3CCCCC3)cc2)cc(OC)c1 [PH104, 3,5-dimethoxy-4′-cyclohexylchalcone]
% TNF-α producing cells (TNF-α [1]; [7]): 2.4% | % TNF-α producing cells (TNF-α [1]; [8]): 1.4% | % TNF-α producing cells (TNF-α [1]; [9]): 2.4% | % TNF-α producing cells (TNF-α [1]; [10]): 1.0% | % TNF-α producing cells (TNF-α [1]; [11]): 1.7% | % TNFα- producing cells (TNF-α [1]; [12]): 2.9% | % TNFα- producing cells (TNF-α [1]; [13]): 1.1% | % TNFα- producing cells (TNF-α [1]; [14]): 1.2% | % TNF-α producing cells (TNF-α [1]; [15]): 3.0% | % TNF-α producing cells (TNF-α [1]; [16]): 0.8% | % TNF-α producing cells (TNF-α [1]; [17]): 1.0% | inhibition at 12.5 µg/mL (TNF-α [1]; [18]): 83% | inhibition at 25 µg/mL (TNF-α [1]; [19]): 90% | inhibition at 3.125 µg/mL (TNF-α [1]; [20]): 40% | inhibition at 6.25 µg/mL (TNF-α [1]; [21]): 75% | inhibition at 12.5 µg/mL (TNF-α [1]; [22]): 58% | inhibition at 3.125 µg/mL (TNF-α [1]; [12]): 71% | inhibition at 6.25 µg/mL (TNF-α [1]; [23]): 89% | inhibition at 12.5 µg/mL (TNF-α [1]; [24]): 88% | inhibition at 3.125 µg/mL (TNF-α [1]; [25]): 79% | inhibition at 6.25 µg/mL (TNF-α [1]; [26]): 95% | inhibition at 12.5 µg/mL (TNF-α [1]; [27]): 93% | inhibition at 3.125 µg/mL (TNF-α [2]; 1b Experiment 2, LPS 1 μg/ml): 82% | inhibition at 6.25 µg/mL (TNF-α [2]; 1b Experiment 2, LPS 1 μg/ml): 90% | inhibition at 12.5 µg/mL (TNF-α [2]; 1b Experiment 2, LPS 1 μg/ml): 93% | inhibition at 3.125 µg/mL (TNF-α [2]; 1b Experiment 3, LPS 1 μg/ml): 54% | inhibition at 6.25 µg/mL (TNF-α [2]; 1b Experiment 3, LPS 1 μg/ml): 70% | inhibition at 12.5 µg/mL (TNF-α [2]; 1b Experiment 3, LPS 1 μg/ml): 76% | inhibition at 3.125 µg/mL (TNF-α [2]; 1b Experiment 4, LPS 1 μg/ml): 0% | inhibition at 6.25 µg/mL (TNF-α [2]; 1b Experiment 4, LPS 1 μg/ml): 78% | inhibition at 12.5 µg/mL (TNF-α [2]; 1b Experiment 4, LPS 1 μg/ml): 86%
